Experimental data from PubChem BioAssay (NCI).
Several values for one entry are separate records, joined by “and”; a condition that tells them apart may be missing. Identical values can stand only once.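 Step 1: Grow cells in 96-well plates. Step 2: Expose to compound for 48 hours at 5 concentrations. Step 3: Interpolate endpoints linearly; if unreached, use highest concentration. At the GI50, growth is halved. At the TGI there is no net growth.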

Legend:
Test in all cases: growth of human tumour cells (NCI), 48 h
DMS 114 small cell lung = test system: DMS 114 small cell lung
DMS 273 small cell lung = test system: DMS 273 small cell lung
HS 578T breast = test system: HS 578T breast
DU-145 prostate = test system: DU-145 prostate
PC-3 prostate = test system: PC-3 prostate
T-47D breast = test system: T-47D breast
MDA-N = test system: MDA-N
RXF-631 renal = test system: RXF-631 renal
XF 498 CNS = test system: XF 498 CNS

Structure (SMILES): COC(=O)[C@H]1[C@H]2C[C@@H]3c4[nH]c5cc(OC)ccc5c4CCN3C[C@H]2C[C@@H](OC(=O)c2cc(OC)c(OC)c(OC)c2)[C@@H]1OC
- TGI (DMS 114 small cell lung): 40.4 µM
- TGI (DMS 273 small cell lung): 51.8 µM

Structure (SMILES): COc1ccc(C(C#N)NC23CC4CC(CC(C4)C2)C3)cc1OC (centres undefined)
- TGI (HS 578T breast): > 100 µM
- TGI (DU-145 prostate): > 100 µM
- TGI (PC-3 prostate): > 100 µM
- TGI (T-47D breast): > 100 µM
- TGI (MDA-N): > 100 µM

Structure (SMILES): Cc1csc(/C=N/NC(=O)c2nnn(-c3ccnc4c(C(F)(F)F)cccc34)c2C)c1
- GI50 (HS 578T breast): > 100 µM
- TGI (HS 578T breast): > 100 µM
- GI50 (DU-145 prostate): > 100 µM
- TGI (DU-145 prostate): > 100 µM
- GI50 (PC-3 prostate): 41.1 µM
- TGI (PC-3 prostate): > 100 µM
- GI50 (T-47D breast): 29.5 µM
- TGI (T-47D breast): > 100 µM

Structure (SMILES): COc1cc(NS(C)(=O)=O)ccc1Nc1c2ccccc2nc2c(C)cccc12
- GI50 (HS 578T breast): 0.652 µM and 0.406 µM
- TGI (HS 578T breast): 12.8 µM and 6.53 µM
- GI50 (DU-145 prostate): 0.145 µM and 0.163 µM
- TGI (DU-145 prostate): 7 µM and 11.5 µM
- GI50 (PC-3 prostate): 0.629 µM and 1.05 µM
- TGI (PC-3 prostate): 18.6 µM and 25.5 µM
- GI50 (T-47D breast): 0.111 µM and 0.109 µM
- TGI (T-47D breast): 4.05 µM and 5.71 µM

Structure (SMILES): Cc1cc(Cc2cc(C)c(O)c(C)c2)cc(C)c1O
- GI50 (HS 578T breast): 2.58 µM
- TGI (HS 578T breast): 12.5 µM
- GI50 (DU-145 prostate): 14.6 µM
- TGI (DU-145 prostate): > 100 µM
- GI50 (PC-3 prostate): 14.8 µM
- TGI (PC-3 prostate): > 100 µM
- GI50 (T-47D breast): 4.64 µM
- TGI (T-47D breast): 72 µM

Structure (SMILES): O=C(/C=C1\C(=O)N(Cc2ccc([N+](=O)[O-])cc2)c2ccccc21)c1ccc(OCCN2CCCCC2)cc1
- GI50 (HS 578T breast): 1.71 µM
- TGI (HS 578T breast): 6.09 µM
- GI50 (DU-145 prostate): 1.56 µM
- TGI (DU-145 prostate): 2.93 µM
- GI50 (PC-3 prostate): 1.74 µM
- TGI (PC-3 prostate): 3.52 µM

Structure (SMILES): O=C(CC(=O)C(=O)Nc1ccccc1)CC(c1ccccc1)c1c(O)c2ccccc2oc1=O (centres undefined)
- TGI (RXF-631 renal): > 100 µM
- TGI (DMS 114 small cell lung): > 100 µM
- TGI (DMS 273 small cell lung): > 100 µM

Structure (SMILES): O=C(Cn1c(=O)c(-c2ccccc2)nc2ccccc21)c1ccc(Cl)cc1
- GI50 (HS 578T breast): 43.5 µM
- TGI (HS 578T breast): > 100 µM
- GI50 (DU-145 prostate): 52.2 µM
- TGI (DU-145 prostate): > 100 µM
- GI50 (PC-3 prostate): 34.6 µM
- TGI (PC-3 prostate): > 100 µM
- GI50 (T-47D breast): > 100 µM
- TGI (T-47D breast): > 100 µM

Structure (SMILES): COC(=O)C1CC(=O)CCC1c1ccccc1 (centres undefined)
- TGI (DMS 114 small cell lung): > 100 µM
- TGI (DMS 273 small cell lung): > 100 µM

Structure (SMILES): CN(CCC#N)c1ccc(/C=C(\C#N)c2cccc(C(F)(F)F)c2)cc1
- GI50 (HS 578T breast): 4.3 µM
- TGI (HS 578T breast): > 100 µM
- GI50 (DU-145 prostate): 11.3 µM
- TGI (DU-145 prostate): > 100 µM
- GI50 (PC-3 prostate): 4.07 µM
- TGI (PC-3 prostate): > 100 µM
- GI50 (T-47D breast): 2.25 µM
- TGI (T-47D breast): > 100 µM

Structure (SMILES): O=C(/C=C/C12c3ccccc3C(c3ccccc31)C1C(=O)N(c3ccccc3)C(=O)C12)c1ccc(Cl)cc1 (centres undefined)
- GI50 (HS 578T breast): 1.82 µM
- TGI (HS 578T breast): 5.92 µM
- GI50 (DU-145 prostate): 1.77 µM
- TGI (DU-145 prostate): 4.03 µM
- GI50 (PC-3 prostate): 1.42 µM
- TGI (PC-3 prostate): 8.27 µM

Structure (SMILES): N#CCCN(CCC#N)C(=O)c1cccc(C(=O)N(CCC#N)CCC#N)c1
- TGI (XF 498 CNS): > 100 µM
- TGI (DMS 114 small cell lung): > 100 µM
- TGI (DMS 273 small cell lung): > 100 µM

Structure (SMILES): COc1cc2c(c(OC)c1OC)C(=O)CC(c1cccc(NC(=O)c3ccc(Br)cc3)c1)O2 (centres undefined)
- GI50 (HS 578T breast): 4.1 µM
- TGI (HS 578T breast): > 100 µM
- GI50 (DU-145 prostate): 2.85 µM
- TGI (DU-145 prostate): > 100 µM
- GI50 (PC-3 prostate): 2.33 µM
- TGI (PC-3 prostate): 8.59 µM
- GI50 (T-47D breast): 1.41 µM
- TGI (T-47D breast): 5.98 µM

Structure (SMILES): Cc1c(C)c2c(c(C)c1NC(=O)/C=C\C(=O)O)CCC(C)(CCCC(C)CCCC(C)CCCC(C)C)O2 (centres undefined)
- GI50 (HS 578T breast): 1.89 µM
- TGI (HS 578T breast): 4.97 µM
- GI50 (DU-145 prostate): 1.69 µM
- TGI (DU-145 prostate): 3.05 µM
- GI50 (PC-3 prostate): 1.38 µM
- TGI (PC-3 prostate): 2.91 µM
- GI50 (T-47D breast): 2.02 µM
- TGI (T-47D breast): 4.78 µM

Structure (SMILES): O=C(CCN1CCOCC1)Nc1ccc(F)cc1F
- TGI (HS 578T breast): > 100 µM
- TGI (DU-145 prostate): > 100 µM
- TGI (PC-3 prostate): > 100 µM
- TGI (T-47D breast): > 100 µM
- TGI (MDA-N): > 100 µM

Structure (SMILES): COc1cc([N+](=O)[O-])c(S(=O)(=O)O)cc1NS(=O)(=O)c1ccc(C)cc1
- TGI (HS 578T breast): > 100 µM
- TGI (DU-145 prostate): > 100 µM
- TGI (PC-3 prostate): > 100 µM
- TGI (T-47D breast): > 100 µM
- TGI (MDA-N): > 100 µM

Structure (SMILES): N=CCCN(CCC=N)c1ccc(/C=C2\CN(NC(=O)c3ccc(Cl)cc3)C(c3ccccc3)=N2)cc1
- TGI (RXF-631 renal): > 100 µM
- TGI (DMS 114 small cell lung): > 100 µM
- TGI (DMS 273 small cell lung): > 100 µM

Structure (SMILES): O=C(C/C(=N\NC(=O)C[n+]1ccccc1)C(=O)Nc1nc2ccc([N+](=O)[O-])cc2s1)CC(c1ccccc1)c1c(O)c2ccccc2oc1=O (centres undefined)
- TGI (DMS 114 small cell lung): > 100 µM

Structure (SMILES): O=C1c2ccccc2NC(c2cc(Cl)cc(Cl)c2O)N1CCc1ccccn1 (centres undefined)
- TGI (HS 578T breast): > 100 µM
- TGI (DU-145 prostate): > 100 µM
- TGI (PC-3 prostate): > 100 µM
- TGI (T-47D breast): 69.8 µM
- TGI (MDA-N): > 100 µM

Structure (SMILES): Nc1ncnc2c1ncn2C1OC(CSC(F)(F)F)C(O)C1O (centres undefined)
- TGI (DMS 114 small cell lung): > 100 µM
- TGI (DMS 273 small cell lung): > 100 µM

Structure (SMILES): C=C1C(=O)O[C@H]2[C@H]1CC/C(Cn1cc(CNCCc3c[nH]c4ccc(Cl)cc34)nn1)=C\CC[C@@]1(C)O[C@@H]21
- GI50 (HS 578T breast): 11.1 µM
- TGI (HS 578T breast): 53.1 µM
- GI50 (DU-145 prostate): 5.95 µM
- TGI (DU-145 prostate): 18.5 µM
- GI50 (PC-3 prostate): 8.96 µM
- TGI (PC-3 prostate): 27 µM
- GI50 (T-47D breast): 3.24 µM
- TGI (T-47D breast): 13.8 µM

Structure (SMILES): Cc1cc(=O)n(-c2ccccc2)c(=O)o1
- TGI (DMS 114 small cell lung): > 100 µM
- TGI (DMS 273 small cell lung): > 100 µM

Structure (SMILES): COc1cc(N2CCN(C(C)C)CC2)ccc1Nc1nc(Nc2cccc3ncccc23)c2cc[nH]c2n1
- GI50 (HS 578T breast): 5.42 µM
- TGI (HS 578T breast): 24.3 µM
- GI50 (DU-145 prostate): 6.55 µM
- TGI (DU-145 prostate): 24.6 µM
- GI50 (PC-3 prostate): 8.99 µM
- TGI (PC-3 prostate): > 25 µM
- GI50 (T-47D breast): 3.8 µM
- TGI (T-47D breast): 13.6 µM

Structure (SMILES): Cn1cc(C2=C(c3c4n(c5ccccc35)CCCC4)C(=O)NC2=O)c2ccccc21
- GI50 (HS 578T breast): 5.13 µM
- TGI (HS 578T breast): > 25 µM
- GI50 (DU-145 prostate): > 15 µM
- TGI (DU-145 prostate): > 25 µM
- GI50 (PC-3 prostate): 10.4 µM
- TGI (PC-3 prostate): > 25 µM
- GI50 (T-47D breast): > 15.5 µM
- TGI (T-47D breast): > 25 µM

Structure (SMILES): NC(N)=NS(=O)(=O)c1ccc(Nc2c3ccccc3nc3c(C(=O)N4CCN(CCO)CC4)cccc23)cc1
- TGI (XF 498 CNS): > 100 µM
- TGI (DMS 114 small cell lung): > 100 µM
- TGI (DMS 273 small cell lung): > 100 µM

Structure (SMILES): CCCCN(CCCC)c1ccc(C(=N)c2ccc(N(C)C)cc2)cc1
- GI50 (HS 578T breast): 1.18 µM
- TGI (HS 578T breast): 3.28 µM
- GI50 (DU-145 prostate): 1.03 µM
- TGI (DU-145 prostate): 2.23 µM
- GI50 (PC-3 prostate): 0.409 µM
- TGI (PC-3 prostate): 1.67 µM
- GI50 (T-47D breast): 0.322 µM
- TGI (T-47D breast): 1.51 µM

Structure (SMILES): NC(=O)c1cc(-c2ccncc2)cc(-c2ccccc2)c1N
- GI50 (HS 578T breast): 6.35 µM
- TGI (HS 578T breast): > 23.6 µM
- GI50 (DU-145 prostate): > 22.9 µM
- TGI (DU-145 prostate): > 25 µM
- GI50 (PC-3 prostate): > 22.3 µM
- TGI (PC-3 prostate): > 25 µM
- GI50 (T-47D breast): 9.57 µM
- TGI (T-47D breast): > 25 µM

Structure (SMILES): O=C(O)C1CCc2nnc(-c3ccccc3)n21 (centres undefined)
- TGI (RXF-631 renal): > 100 µM
- TGI (DMS 114 small cell lung): > 100 µM
- TGI (DMS 273 small cell lung): > 100 µM

Structure (SMILES): CC12CCC([C@H](N3CCOCC3)/C1=N\OCCN1CCCC1)C2(C)C (some centres undefined)
- TGI (RXF-631 renal): > 100 µM
- TGI (DMS 114 small cell lung): > 100 µM
- TGI (DMS 273 small cell lung): > 100 µM

Structure (SMILES): C/C(=N/NC(=O)c1ccncc1)c1ccc(NC(=O)C(=O)Nn2c(=S)[nH]c3ccccc3c2=O)cc1
- TGI (HS 578T breast): > 100 µM
- TGI (DU-145 prostate): > 100 µM
- TGI (PC-3 prostate): > 100 µM
- TGI (T-47D breast): > 100 µM
